In ChEMBL document CHEMBL1134570, “Synthesis of and a comparative study on the inhibition of muscle and liver glycogen phosphorylases by epimeric pairs of d-gluco- and d-xylopyranosylidene-spiro-(thio)hydantoins and N-(d-glucopyranosyl) amides” (J Med Chem, 2001):
The source made the active and inactive calls. The rule behind the calls is not given here.

System: glycogen phosphorylase, muscle form (rabbit)
Assay: Inhibitory activity against muscle Glycogen Phosphorylase b; no inhibition
Conditions: Muscle tissue

## NC(=O)[C@]1(O)OC[C@@H](O)[C@H](O)C1O (stereo partly specified)
  NI: inactive
